Test results: US11168073B2, “3,3-difluoroallylamines or salts thereof and pharmaceutical compositions comprising the same” (YUHAN CORPORATION, priority 2018, dated 2021)
Structures can show the parent of a compound that is named as a salt. Where two headings read alike, the source gives them in different places.

Columns and labels:
Type in all cases: biochemical
recombinant human VAP-1 = molecular target: T1, recombinant human VAP-1 (Homo sapiens, UniProt Q16853); assay: Activity evaluation on recombinant human VAP-1 (Amplex Red/HRP-coupled hydrogen peroxide assay, benzylamine substrate); conditions: read-out: Inhibitory Activity (IC50, nM) human VAP-1
T1 construct: purchased R&D systems
T1 sequence (Q16853 1-763): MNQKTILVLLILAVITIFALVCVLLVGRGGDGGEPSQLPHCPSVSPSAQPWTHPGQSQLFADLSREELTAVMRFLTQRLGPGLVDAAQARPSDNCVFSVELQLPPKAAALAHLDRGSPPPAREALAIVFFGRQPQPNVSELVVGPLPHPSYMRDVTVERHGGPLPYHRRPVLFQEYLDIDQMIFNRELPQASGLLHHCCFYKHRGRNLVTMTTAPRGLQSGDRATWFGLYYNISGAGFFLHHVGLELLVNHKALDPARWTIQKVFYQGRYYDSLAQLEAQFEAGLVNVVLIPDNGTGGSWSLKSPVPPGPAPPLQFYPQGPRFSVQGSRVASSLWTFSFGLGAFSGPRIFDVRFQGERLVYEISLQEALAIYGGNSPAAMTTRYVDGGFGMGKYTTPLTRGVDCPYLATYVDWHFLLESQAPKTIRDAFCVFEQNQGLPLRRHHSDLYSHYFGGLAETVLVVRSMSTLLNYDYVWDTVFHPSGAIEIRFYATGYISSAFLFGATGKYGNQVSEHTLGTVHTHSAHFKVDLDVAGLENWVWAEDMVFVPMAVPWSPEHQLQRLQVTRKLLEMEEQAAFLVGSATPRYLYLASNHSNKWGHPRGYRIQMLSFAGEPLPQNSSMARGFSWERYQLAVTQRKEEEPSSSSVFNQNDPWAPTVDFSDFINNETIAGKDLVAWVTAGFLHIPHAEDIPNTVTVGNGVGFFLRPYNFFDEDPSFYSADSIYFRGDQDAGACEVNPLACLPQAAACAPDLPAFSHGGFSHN
Summary of the method: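 Recombinant human VAP-1 in 50 mM sodium phosphate pH 7.4 preincubated 30 min at 37 °C with compound (8-point 1:3 series, <1% DMSO), then 1 mM benzylamine, 200 uM Amplex Red, 1 U/mL HRP added. H2O2-derived resorufin fluorescence (ex 544/em 590) followed 1–2 h; IC50 from four-parameter fit of rate inhibition.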

[1] = molecular target: T2, recombinant human MAO-A (monoamine oxidase-A) (Homo sapiens, UniProt P21397); assay: Activity evaluation on recombinant human MAO-A (Amplex Red/HRP-coupled assay, 0.5 mM tyramine substrate); conditions: read-out: Inhibitory Activity (IC50, nM) MAO-A
T2 construct: purchased Sigma-Aldrich
T2 sequence (P21397 1-527): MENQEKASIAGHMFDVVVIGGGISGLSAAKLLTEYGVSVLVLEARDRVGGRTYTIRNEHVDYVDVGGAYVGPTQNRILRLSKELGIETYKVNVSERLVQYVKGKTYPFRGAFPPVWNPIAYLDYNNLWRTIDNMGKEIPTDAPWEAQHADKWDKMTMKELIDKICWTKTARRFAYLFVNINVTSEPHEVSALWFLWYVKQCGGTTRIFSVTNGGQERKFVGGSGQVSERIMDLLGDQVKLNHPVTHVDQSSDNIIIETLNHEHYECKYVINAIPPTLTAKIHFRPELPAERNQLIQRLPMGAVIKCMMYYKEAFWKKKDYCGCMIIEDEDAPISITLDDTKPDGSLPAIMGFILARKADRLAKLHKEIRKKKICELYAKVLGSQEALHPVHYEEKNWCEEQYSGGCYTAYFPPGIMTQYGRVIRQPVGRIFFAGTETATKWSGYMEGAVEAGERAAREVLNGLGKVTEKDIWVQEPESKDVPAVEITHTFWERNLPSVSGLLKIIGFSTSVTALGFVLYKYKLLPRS
Summary of the method: (§1)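 Compounds preincubated 30 min at 37 °C with enzyme in 50 mM sodium phosphate pH 7.4 (final DMSO <1%, 8-point 1:3 dilutions); reaction started with 200 uM Amplex Red, 1 U/mL HRP and substrate (MAO-A 0.5 mM tyramine, MAO-B 1 mM benzylamine, DAO 1 mM putrescine). Resorufin fluorescence (ex 544/em 590 nm) followed over 1-2 h; IC50 from four-parameter logistic fit.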

[2] = molecular target: T3, recombinant human MAO-B (monoamine oxidase-B) (Homo sapiens, UniProt P27338); assay: Activity evaluation on recombinant human MAO-B (Amplex Red/HRP-coupled assay, 1 mM benzylamine substrate); conditions: read-out: Inhibitory Activity (IC50, nM) MAO-B
T3 construct: purchased Sigma-Aldrich
T3 sequence (P27338 1-520): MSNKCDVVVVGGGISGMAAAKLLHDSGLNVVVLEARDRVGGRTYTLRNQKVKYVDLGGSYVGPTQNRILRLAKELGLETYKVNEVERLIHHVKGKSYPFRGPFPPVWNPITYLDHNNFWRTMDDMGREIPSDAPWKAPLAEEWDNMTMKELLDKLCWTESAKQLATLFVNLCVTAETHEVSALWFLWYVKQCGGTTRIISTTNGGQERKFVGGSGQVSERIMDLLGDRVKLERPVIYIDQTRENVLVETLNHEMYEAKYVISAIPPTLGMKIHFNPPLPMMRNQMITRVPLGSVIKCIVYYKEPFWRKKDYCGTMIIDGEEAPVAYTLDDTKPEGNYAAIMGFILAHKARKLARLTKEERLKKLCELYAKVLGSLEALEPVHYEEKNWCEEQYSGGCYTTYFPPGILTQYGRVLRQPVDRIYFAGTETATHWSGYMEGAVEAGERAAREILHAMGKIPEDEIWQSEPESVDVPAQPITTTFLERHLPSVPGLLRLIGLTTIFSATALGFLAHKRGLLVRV
Summary of the method: as §1

[3] = molecular target: T4, recombinant human DAO (diamine oxidase) (Homo sapiens, UniProt P19801); assay: Activity evaluation on recombinant human DAO (Amplex Red/HRP-coupled assay, 1 mM putrescine substrate); conditions: read-out: Inhibitory Activity (IC50, nM) DAO
T4 construct: purchased R&D systems
T4 sequence (P19801 20-751): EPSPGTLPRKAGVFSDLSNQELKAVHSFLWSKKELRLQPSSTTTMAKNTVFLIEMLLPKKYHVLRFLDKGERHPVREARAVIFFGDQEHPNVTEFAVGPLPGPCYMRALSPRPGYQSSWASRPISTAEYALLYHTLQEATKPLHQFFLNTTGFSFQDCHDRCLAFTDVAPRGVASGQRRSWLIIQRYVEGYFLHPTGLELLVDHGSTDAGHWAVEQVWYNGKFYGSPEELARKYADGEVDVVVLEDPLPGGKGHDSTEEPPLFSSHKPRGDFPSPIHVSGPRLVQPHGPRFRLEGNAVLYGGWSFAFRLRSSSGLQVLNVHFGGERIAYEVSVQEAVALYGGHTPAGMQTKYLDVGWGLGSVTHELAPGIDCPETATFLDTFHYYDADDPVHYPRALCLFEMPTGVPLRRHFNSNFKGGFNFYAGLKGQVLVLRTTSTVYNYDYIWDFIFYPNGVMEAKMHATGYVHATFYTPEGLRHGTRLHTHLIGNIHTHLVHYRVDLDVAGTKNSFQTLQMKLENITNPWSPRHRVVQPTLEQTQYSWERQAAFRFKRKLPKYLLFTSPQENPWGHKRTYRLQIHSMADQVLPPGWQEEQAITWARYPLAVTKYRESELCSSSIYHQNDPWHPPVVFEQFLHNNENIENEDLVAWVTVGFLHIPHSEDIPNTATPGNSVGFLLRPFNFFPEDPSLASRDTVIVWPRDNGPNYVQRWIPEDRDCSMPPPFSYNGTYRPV
Summary of the method: as §1

[4] = recombinant human VAP-1, benzylamine substrate
[5] = recombinant human VAP-1, 30 min preincubation at 37° C., 1 mM benzylamine

| IC50 (recombinant human VAP-1; [4]) | IC50 ([1]; 0.5 mM tyramine substrate) | IC50 ([2]; 1 mM benzylamine substrate) | IC50 ([3]; 1 mM putrescine substrate) | IC50 (recombinant human VAP-1; [5]) | IC50 ([1]; 0.5 mM tyramine) | IC50 ([2]; 1 mM benzylamine) | IC50 ([3]; 1 mM putrescine) | Compound |
| --- | --- | --- | --- | --- | --- | --- | --- | --- |
| 2.8 nM | > 100000 nM | > 100000 nM | 8700 nM | – | – | – | – | Cc1c(-c2ccc(S(C)(=O)=O)cc2)cccc1-n1cnn(CC(CN)=C(F)F)c1=O [Example 253, 2-[2-(aminomethyl)-3,3-difluoro-allyl]-4-[2-methyl-3-(4-methylsulfonylphenyl)phenyl]-1,2,4-triazol-3-one Trifluoroacetate] |
| – | – | – | – | 0.6 nM | > 100000 nM | 1300 nM | 19 nM | CCn1cc(-c2cnc(-n3cnn(CC(CN)=C(F)F)c3=O)cn2)cn1 [Example 95, 2-[2-(aminomethyl)-3,3-difluoro-allyl]-4-[5-(1-ethylpyrazol-4-yl)pyrazin-2-yl]-1,2,4-triazol-3-one Trifluoroacetate] |
| – | – | – | – | 0.7 nM | > 100000 nM | 5800 nM | 1500 nM | Cc1cc(-c2ccc(C(F)(F)F)nc2)cnc1-n1cnn(CC(CN)=C(F)F)c1=O [Example 70, 2-[2-(aminomethyl)-3,3-difluoro-allyl]-4-[3-methyl-5-[6-(trifluoromethyl)-3-pyridyl]-2-pyridyl]-1,2,4-triazol-3-one Trifluoroacetate] |
| – | – | – | – | 0.4 nM | 7800 nM | 12000 nM | > 100000 nM | CC(=O)Nc1nc2ccc(-c3ccc(Cn4cnn(CC(CN)=C(F)F)c4=O)s3)cc2s1 [Example 131, N-[6-[5-[[1-[2-(aminomethyl)-3,3-difluoro-allyl]-5-oxo-1,2,4-triazol-4-yl]methyl]-2-thienyl]-1,3-benzothiazol-2-yl]acetamide trifluoroacetate] |
| 2.5 nM | > 100000 nM | > 100000 nM | > 100000 nM | – | – | – | – | Cc1c(-c2ccc(N(C)C)nc2)cccc1-n1cnn(CC(CN)=C(F)F)c1=O [Example 256, 2-[2-(aminomethyl)-3,3-difluoro-allyl]-4-[3-[6-(dimethylamino)-3-pyridyl]-2-methyl-phenyl]-1,2,4-triazol-3-one Trifluoroacetate] |
| – | – | – | – | 0.2 nM | > 100000 nM | 150 nM | 200 nM | Cc1cc(-c2ccc(-n3cnn(CC(CN)=C(F)F)c3=O)cc2F)cc2c1NC(=O)CC2 [Example 29, 6-[4-[1-[2-(aminomethyl)-3,3-difluoro-allyl]-5-oxo-1,2,4-triazol-4-yl]-2-fluoro-phenyl]-8-methyl-3,4-dihydro-1H-quinolin-2-one Trifluoroacetate] |
| 1.5 nM | > 100000 nM | 18000 nM | 19000 nM | – | – | – | – | Cc1cc(-c2cnn(C(F)F)c2)cnc1-n1cnn(CC(CN)=C(F)F)c1=O [Example 251, 2-[2-(aminomethyl)-3,3-difluoro-allyl]-4-[5-[1-(difluoromethyl)pyrazol-4-yl]-3-methyl-2-pyridyl]-1,2,4-triazol-3-one Trifluoroacetate] |
| – | – | – | – | 0.3 nM | > 100000 nM | 22000 nM | > 100000 nM | Cc1cc(-c2ccc(Cn3cnn(CC(CN)=C(F)F)c3=O)s2)cc2c1NC(=O)CC2 [Example 134, 6-[5-[[1-[2-(aminomethyl)-3,3-difluoro-allyl]-5-oxo-1,2,4-triazol-4-yl]methyl]-2-thienyl]-8-methyl-3,4-dihydro-1H-quinolin-2-one Trifluoroacetate] |
| 0.5 nM | > 100000 nM | > 100000 nM | 25000 nM | – | – | – | – | CN1Cc2cc(-c3csc(Cn4cnn(CC(CN)=C(F)F)c4=O)c3)ccc2NC1=O [Example 186, 6-[5-[[1-[2-(aminomethyl)-3,3-difluoro-allyl]-5-oxo-1,2,4-triazol-4-yl]methyl]-3-thienyl]-3-methyl-1,4-dihydroquinazolin-2-one Trifluoroacetate] |
| 1.4 nM | 2620 nM | 3230 nM | 2480 nM | – | – | – | – | CCn1cc(-c2ccc(-c3ccc(Cn4cnn(CC(CN)=C(F)F)c4=O)s3)cc2)cn1 [Example 286, 2-[2-(aminomethyl)-3,3-difluoro-allyl]-4-[[5-[4-(1-ethylpyrazol-4-yl)phenyl]-2-thienyl]methyl]-1,2,4-triazol-3-one Trifluoroacetate] |
| – | – | – | – | 1.1 nM | > 100000 nM | 44000 nM | 32 nM | Cc1cc(-n2cnn(CC(CN)=C(F)F)c2=O)cnc1-c1ccc(S(C)(=O)=O)cc1 [Example 76, 2-[2-(aminomethyl)-3,3-difluoro-allyl]-4-[5-methyl-6-(4-methylsulfonylphenyl)-3-pyridyl]-1,2,4-triazol-3-one Trifluoroacetate] |
| – | – | – | – | 0.6 nM | > 100000 nM | 1070 nM | > 100000 nM | NCC(Cn1ncn(Cc2ccc(-c3ccc4cn[nH]c4c3)s2)c1=O)=C(F)F [Example 127, 2-[2-(aminomethyl)-3,3-difluoro-allyl]-4-[[5-(1H-indazol-6-yl)-2-thienyl]methyl]-1,2,4-triazol-3-one Trifluoroacetate] |
